In brackets after ≈: the same amount, converted by molar mass.
Experiments:
Type in all cases: cell-based
[1] = system: LTE4-induced contraction of strips of guinea pig lung; assay: inhibition of LTE4-induced contraction of strips of guinea pig lung; details: Cavia porcellus; LTE4 3 ng/ml; indomethacin-pretreated strips (10^-6 g/ml); test substance added after maximum contraction plateau; 37° C.; read-out: IC50 with respect to LTE4
Protocol: (§1) The leukotriene-antagonistic action of the substances of the general formula I according to the invention is determined by the inhibition of the leukotriene-induced contraction of strips of guinea pig lung. The method which is used is a modification of the test described by Foreman, Shelly and Weber (Arch. Int. Pharmacodyn. 278, 193-206 (1985)).
(§2) Guinea pigs are sacrificed by an overdose of ether. The thoracic cavity is opened; the lungs are removed and cut into strips 5 cm long, which are stored in physiological saline. For the measurement, the strips of lung are placed in an organ bath filled with Ringer's solution which is equilibrated at 37° C. and through which carbogen (O2 /CO2 95:5 parts by volume) is passed. The strips are left to equilibrate under a load of 0.5-1 g for 30-60 minutes. The strips of lung are pretreated with indomethacin (10^-6 g/ml of bath liquid) before the test starts.
(§3) The contraction is induced by adding LTC4, LTD4 or LTE4 in a concentration of 3 ng/ml of bath liquid. The test substances are administered therapeutically into the bath, after the maximum contraction plateau has been reached, in several concentrations and at time intervals of 10 minutes. 6-12 strips of lung are used for each concentration of the test substance.
(§4) The concentrations of the test substances at which the contraction is reduced by 50% (IC50) are indicated in μg/ml.

[2] = system: LTC4-induced contraction of strips of guinea pig lung; assay: inhibition of LTC4-induced contraction of strips of guinea pig lung; details: Cavia porcellus; LTC4 3 ng/ml; indomethacin-pretreated strips (10^-6 g/ml); test substance added after maximum contraction plateau; 37° C.; read-out: IC50 with respect to LTC4
Protocol: as §1, §2, §3, §4

[3] = system: LTD4-induced contraction of strips of guinea pig lung; assay: inhibition of LTD4-induced contraction of strips of guinea pig lung; details: Cavia porcellus; LTD4 3 ng/ml; indomethacin-pretreated strips (10^-6 g/ml); test substance added after maximum contraction plateau; 37° C.; read-out: IC50 with respect to LTD4
Protocol: as §1, §2, §3, §4

Structure (SMILES)	IC50 [1] [µg/mL]	IC50 [2] [µg/mL]	IC50 [3] [µg/mL]
O=C(O)CCSCC(O)Cc1cccc(C2CCCC2)c1OCc1ccccc1 (racemic) [Compound C, (6RS)-7-(2-Benzyloxy-3-cyclopentylphenyl)-6-hydroxy-4-thiaheptanoic acid]	3 (≈ 7.24 µM)	3 to 6 (≈ 7.24 to 14.5 µM)	3 to 6 (≈ 7.24 to 14.5 µM)
COC(=O)CCSCC(O)Cc1cccc(C2CCCC2)c1OCc1ccccc1 (racemic) [Compound B, Methyl (6RS)-7-(2-benzyloxy-3-cyclopentylphenyl)-6-hydroxy-4-thiaheptanoate]	3 (≈ 7 µM)	0.6 (≈ 1.4 µM)	1 (≈ 2.33 µM)
OCCSCC(O)Cc1cccc(C2CCCC2)c1OCc1ccccc1 (racemic) [Compound E, (5RS)-6-(2-benzyloxy-3-cyclopentylphenyl)-3-thiahexane-1,5-diol]	1 to 3 (≈ 2.59 to 7.76 µM)	6 to 10 (≈ 15.5 to 25.9 µM)	6 to 10 (≈ 15.5 to 25.9 µM)
COC(=O)CCSCC(O)Cc1ccccc1OCc1ccccc1 (racemic) [Compound A, Methyl (6RS)-7-(2-benzyloxyphenyl)-6-hydroxy-4-thiaheptanoate]	0.6 to 1 (≈ 1.66 to 2.77 µM)	0.6 to 1 (≈ 1.66 to 2.77 µM)	0.6 (≈ 1.66 µM)
COC(=O)CCSCC(O)Cc1cc(Cl)ccc1OCc1ccccc1 (racemic) [Compound D, Methyl (6RS)-7-(2-benzyloxy-5-chlorophenyl)-6-hydroxy-4-thiaheptanoate]	1 to 3 (≈ 2.53 to 7.6 µM)	6 to 10 (≈ 15.2 to 25.3 µM)	3 (≈ 7.6 µM)

Reference: US4855323A, “Leukotriene antagonists, a process for the preparation thereof, and the use thereof for the treatment of diseases” (Hoechst Aktiengesellschaft, priority 1987, dated 1989)
